The results in this text go back to patent publication US20150065556A1, “THERAPEUTIC TARGETS FOR MITOCHONDRIAL DISORDERS” (Whitehead Institute for Biomedical Research, priority 2013, published 2015).

The test system of assay [1] is KBM7 cells. Briefly: Viability/proliferation of wild type and ATPIF1 null KBM7 cells treated with mitochondrial poisons (7-AAD, FACS). It counts as cell-based, human. Conditions: for resistance of ATPIF1 null KBM7 cells to the poison: viability four days later, 7-AAD, FIG. 1C-D, FIG. 2; for viability of ATPIF1 KO vs WT KBM7 cells in response to ETC inhibitors: 7AAD, FIG. 8A. From the text:
In order to identify potential drug targets for treatment of mitochondrial disorders, we decided to use inhibitors of oxidative phosphorylation (OXPHOS) to model mitochondrial diseases and search for genes, loss-of-function of which can confer resistance to mitochondrial dysfunction caused by the poison. To that end, we explored use of a screening platform based on gene inactivation in human cells using insertional mutagenesis that has recently been developed using the KBM7 CML cell line, which is haploid for all chromosomes except chromosome 8 (5). In this system, insertional mutagenesis is accomplished using a gene trap vector. […]
For the viability assays described in this Example and Example 2, 200,000 cells were used for each sample. Cells were treated with the desired concentration of drug and viability was assessed four days later using 7-AAD and FACS analysis.
Suspension cells were kept on ice, then spun at 4000 rpm for 5 minutes at 4° C. in a table-top microcentrifuge, supernatant aspirated, cells washed once with ice-cold PBS, resuspended in ice-cold PBS with 2 ug/mL 7-AAD viability dye, incubated for 5 minutes on ice, and analyzed by FACS. For adherent cells, the overlying media and PBS used for pre-trypsinization washes was collected and combined with the suspension of trypsinized cells to gather any dead cells that may have detached into the media. The cell suspensions were kept on ice, spun at 1500 rpm for 5 minutes at 4° C. in a swinging bucket centrifuge, supernatant aspirated, cells washed once with ice-cold PBS, resuspended in ice-cold PBS with 2 ug/mL 7-AAD viability dye, incubated for 5 minutes on ice, and analyzed by FACS. Viability was assessed by 7-AAD exclusion. For HeLa, SH-SY5Y, and Malme-3M cells, 500-2,000 cells were seeded per well of white, clear-bottom 96-well plates (Greiner Bio-One), treated with drugs, and then analyzed using CellTiter-Glo according to the manufacturer's instructions (Promega). For primary hepatocytes, 100,000 cells were seeded per well of a 24-well TPP plate (Light Labs), treated with antimycin, and then analyzed using CellTiter-Glo.

In assay [2] the test system is KBM7 cells. Kind of assay: ddI-induced mtDNA depletion in WT and IF1 KO KBM7 cells (proliferation, mtDNA copy number, ATPIF1 protein). In kind it is cell-based, human. From the text: mtDNA was extracted using a QiaAmp DNA Mini Kit (Qiagen) and primers specific to the mitochondrial gene ND1 and the nuclear gene Actb were used in conjunction with a SyBr Green Kit (AB) according to the manufacturer's instructions. The ratio of ND1 copies to Actb copies was used to assess the relative mtDNA/nuclear DNA copy numbers between different samples. In some experiments primers targeting the mitochondrial gene ND1 and the nuclear gene RUNX2 were used to assess mtDNA copy number by normalizing ct values of ND1 to those of RUNX2: ND1_F, CCCTAAAACCCGCCACATCT (SEQ ID NO. 14); ND1_R, GAGCGATGGTGAGAGCTAAGGT (SEQ ID NO. 15); RUNX2_F, CGCATTCCTCATCCCAGTATG (SEQ ID NO. 16); RUNX2_R, AAAGGACTTGGTGCAGAGTTCAG (SEQ ID NO. 17). Relative differences between samples were determined using the comparative Ct method.
KBM7 cells were cultured in IMDM supplemented with 10% IFS and penicillin/streptomycin, except for studies using tigecycline in which they were cultured in RPMI-1640. SH-SY5Y, HeLa, Malme-3M cells were cultured in DMEM supplemented with 10% FBS and penicillin/streptomycin. HeLa WT, HeLa ρ^0, and KBM7 cells used for ddI experiments were grown in DMEM supplemented with 10% FBS, penicillin/streptomycin, and 100 μg/mL uridine. Primary hepatocytes were cultured in Medium 199 supplemented with 10% FBS, penicillin/streptomycin, and GlutaMAX. KBM7, HeLa WT, and HeLa ρ^0 cells stably overexpressing ATPIF1 (WT or E55A) were generated via infection with retroviruses and selected with blasticidin (10 μg/mL) for three days. Malme-3M cells stably overexpressing RAP2A or ATPIF1 were generated by infection with lentiviruses expressing the corresponding cDNAs, followed by selection with puromycin (2 μg/mL) for three days. KBM7, SH-SY5Y, and HeLa cells expressing shLuc or shATPIF1 were generated by infection with lentiviruses expressing the corresponding shRNAs. All cells were infected with spin-infection using a 30 minute spin at 2,250 rpm in media containing polybrene (4 μg/mL), followed by selection one day later.
Failure to maintain proper amounts of the mitochondrial genome is a distinctive feature of a class of severe respiratory chain disorders known as mtDNA depletion syndromes (Lee and Sokol, 2007). Because of our interest in ATPIF1 inhibition as a potential strategy for ameliorating severe ETC dysfunction, we asked if loss of ATPIF1 alone was sufficient to improve cell viability during progressive mtDNA depletion. To do this, we exposed WT and IF1 KO KBM7 cells for 50 days to the drug 2′,3′-dideoxyinosine (ddI), an inhibitor of mtDNA replication, which depletes cells of their mtDNA (Lewis et al., 2003; Walker et al., 2002).

Setting [3] is: initial days of ddI treatment (Early).

In the case of `N#CC(C#N)=NNc1ccc(OC(F)(F)F)cc1` [FCCP, carbonylcyanide p-trifluoromethoxyphenylhydrazone], the “resistance of ATPIF1 null KBM7 cells to the poison” value (“resistance” below) in the assay with KBM7 cells [1] was “resistant”.

Turning to `C[n+]1ccc(-c2ccccc2)cc1` [MPP+, 1-methyl-4-phenylpyridinium], the “viability of ATPIF1 KO vs WT KBM7 cells in response to ETC inhibitors” value in the assay with KBM7 cells [1] is “cells lacking ATPIF1 have increased viability as compared to wild type cells”. Turning to `O=C(CC(=O)C(F)(F)F)c1cccs1` [TTFA], the “resistance” value in the assay on KBM7 cells [1] is listed as “resistant”. As for `OC[C@@H]1CC[C@H](n2cnc3c(O)ncnc32)O1` [ddI, 2′,3′-dideoxyinosine], the “mtDNA of WT and ATPIF1_KO KBM7 cells” value in the assay on KBM7 cells [2] (by about day 25 of ddI treatment (Middle)) is reported as “trace amounts of mtDNA”. The “proliferation of ATPIF1_KO vs WT KBM7 cells” value with KBM7 cells [2] (ddI, Middle (days 19-34)) is “significantly faster rate of proliferation”. Moreover, in the assay on KBM7 cells [2] (setting [3]), the “cell proliferation of WT and ATPIF1_KO KBM7 cells” value is on record as “decrease in cell proliferation”; the “mtDNA copy number of WT and ATPIF1_KO KBM7 cells” value was “immediate decrease in mtDNA copy number”. The “ATPIF1 protein levels and activity of WT KBM7 cells” value with KBM7 cells [2] (long-term exposure to ddI, FIG. 8E) is “greatly reduced ATPIF1 protein levels and activity”. Regarding `C/C=C(\C)[C@H](O)[C@H](C)/C=C(C)/C=C/C/C(C)=C/Cc1nc(OC)c(OC)c(O)c1C` [piercidin A, Piericidin A], in the assay with KBM7 cells [1], the “viability of ATPIF1 KO vs WT KBM7 cells in response to ETC inhibitors” value is reported as “cells lacking ATPIF1 have increased viability as compared to wild type cells” and the “resistance” value is “resistant”.

For the molecule `CN(C)c1cc(NC(=O)CNC(C)(C)C)c(O)c2c1C[C@H]1C[C@H]3[C@H](N(C)C)C(O)=C(C(N)=O)C(=O)[C@@]3(O)C(O)=C1C2=O` [tigecycline], the “viability of ATPIF1 KO vs WT KBM7 cells in response to ETC inhibitors” value in the assay with KBM7 cells [1] was “cells lacking ATPIF1 have increased viability as compared to wild type cells”.
